Data on three compounds can be found in patent US20190144942A1, “METHODS FOR IDENTIFYING AND MODULATING IMMUNE PHENOTYPES” (priority 2016, published 2019).

“Also recorded” adds a separate entry of the source. Read-outs that look alike come from different tables or passages of the source.

Common to all, as to format: cell-based, human
In assay [1] the test system is cluster 1-like/CD64^Hi,PD-L1^Hi cDCs. Put plainly: Acquisition of the CD64Hi,PD-L1Hi cDC phenotype in elite controller cells exposed to virus with inhibitory drugs (flow cytometry).
For assay [2] the test system is unchanged.
The test system is the same in assay [3]. Put plainly: Induction of CD64Hi,PD-L1Hi cDCs in PBMCs incubated with TLR3 agonist and nanoparticle-encapsulated HIV-1 Gag DNA, without live virus. As to conditions: PBMCs from healthy (HIV-negative) individuals; 2 μg/ml Poly I:C and/or polymer nanoparticles loaded with 100 nucleotide HIV-1 Gag DNA; no live virus. As for the experimental part:
PBMC or isolated cDCs were stained with LIVE/DEAD cell blue viability dye (Invitrogen, Carlsbad, Calif.) and monoclonal antibodies directed against CD11c (Biolegend), CD14 (BD), HLA-DR, CD64, PDL-1, ICAM1, CD16, SLAMF8 (Biolegend) and subsequently analyzed on a Fortessa cytometer (BD Biosciences, San Jose, Calif.). For intracellular cytokine staining, cells were treated with a commercial fixation/permeabilization kit (BioLegend) according to the manufacturer's protocol. Data were analyzed with FlowJo software (Tree Star). cDCs were identified from bulk PBMCs as a population of viable CD14^− lymphocytes expressing high levels of CD11c and HLA-DR.
Finally, Applicants explored how Applicants might further exploit this TBK1-dependent innate immune sensing pathway to boost the fraction of cDCs acquiring the cluster 1 phenotype without exposure to live virus. For this purpose, Applicants incubated PBMCs from healthy individuals or ECs simultaneously with a TLR3 agonist (Poly(I:C)) and single- or double-stranded HIV-1 Gag DNA (ssDNA or dsDNA, respectively) encapsulated in polymeric nanoparticles. […]

`O=C(NCCCNc1nc(Nc2cccc(NC(=O)N3CCCC3)c2)ncc1I)c1cccs1` [BX795]: the “induction of the cluster 1-like/CD64^Hi,PD-L1^Hi population” value in assay [1] (EC PBMCs, 1 μM BX795 added at the time of viral addition, p=0.0020, Wilcoxon signed-rank test) is “dramatic and significant abrogation”. As to `O=C(N[C@H](Cc1ccccc1)C(=O)O)c1sc2cc(F)ccc2c1Cl` [TLR3 inhibitor], the “acquisition of the cluster 1/CD64^Hi,PD-L1^Hi cDC phenotype” value in assay [1] (elite controllers (ECs), virus plus TLR3 or TLR4 antagonist vs DMSO, p=0.0^2, Wilcoxon matched-pairs signed-rank test) is “modest, but significant, effect”. As for Poly(I:C), in assay [2], the “proportion of CD64^Hi PDL1^Hi cells among cDCs” value is “significantly induce”. For the same compound, the “proportion of cluster 1-like/CD64^Hi,PD-L1^Hi cDCs” value in assay [2] (24 hours) is “significantly induce; also recorded: induced a larger population; also recorded: significant increase”; in assay [3], “insufficient”.
